Patent US7563899B2, “(S)-N-methylnaltrexone” (Progenics Pharmaceuticals, Inc., priority 2005, dated 2009)
Counter-ions that a name gives are not always drawn.

Assays:
[1] = biological target: T1, μ-opioid receptors in the guinea pig ileum (Cavia porcellus, UniProt A0ACM8Q262); assay: Guinea pig ileum bioassay, test for agonist activity (inhibition of electrically evoked twitch contractions); details: for Response to the compound (decrease in twitch contraction amplitude): percent of control response to DAMGO 1.0E−07 M
Description: (§1) Experimental Conditions. Segments of guinea pig terminal ileum were suspended in 20-ml organ baths filled with an oxygenated (95% O2 and 5% CO2) and pre-warmed (37° C.) physiological salt solution of the following composition (in mM): NaCl 118.0, KCl 4.7, MgSO4 1.2, CaCl2 2.5, KH2PO4 1.2, NaHCO3 25.0 and glucose 11.0 (pH 7.4). Additional experimental conditions were as described in Hutchinson et al. (1975) Brit. J. Pharmacol., 55: 541-546.
(§2) Indomethacin (1 μM), nor-binaltorphimine (0.01 μM), methysergide (1 μM), ondansetron (10 μM) and GR113808 (0.1 μM) were also present throughout the experiments to prevent prostanoid release and to block the k-opioid, 5-HT2, 5-HT3 and 5-HT4 receptors, respectively. The tissues were connected to force transducers for isometric tension recordings. They were stretched to a resting tension of 1 g then allowed to equilibrate for 60 min during which time they were washed repeatedly and the tension readjusted. Thereafter, they were stimulated electrically with pulses of minimal intensity to trigger maximal contractions and 1 ms duration, delivered at 0.1 Hz by a constant current stimulator.
Test for agonist activity. […] The different concentrations were added cumulatively and each was left in contact with the tissues until a stable response was obtained or for a maximum of 15 min.
(§3) Analysis and Expression of Results. The parameter measured was the maximum change in the amplitude of the electrically-evoked twitch contractions induced by each compound concentration.

[2] = biological target: human recombinant mu opioid receptors (Homo sapiens, UniProt P35372); assay: Radioligand binding assay, mu opioid receptor
Description: (§4) Radioligand binding assays were conducted to determine the binding specificity of S-N-methynaltrexone for μ-, κ-, and δ-opiate receptors using methods adapted from scientific literature (Simonin, F et al 1994, Mol. Pharmacol 46:1015-1021; Maguire, P. et al 1992, Eur. J. Pharmacol. 213:219-225; Simonin, F. et al PNAS USA 92(15):1431-1437; Wang, J B 1994, FEBS Lett 338:217-222).

[3] = biological target: T1, μ-opioid receptors in the guinea pig ileum; assay: Guinea pig ileum bioassay, test for antagonist activity (against DAMGO-induced response); details: for Response to DAMGO (1.0E−07 M) in the presence of the compound: percent of control response to DAMGO, mean, n=2
Description: as §1, §2
Test for antagonist activity. […] Each concentration was left in contact with the tissues until a stable response was obtained or for a maximum of 15 min.
as §3

[4] = biological target: T2, human μ (mu, MOP) receptor (Homo sapiens, UniProt P35372); assay: cAMP assay in CHO cells expressing human mu receptor, antagonist assay; assay type: cell-based; details: for cAMP antagonist assay value (Table IX.2): then 30 μM DAMGO, then forskolin
T2 construct: expressed in transfected cells; host or cells: CHO cells
Description: Thus full antagonist effect was equivalent to forskolin without any addition of μ-opioid agonist.
Cells were grown to confluence in 96-well plates. Cells were washed and equilibrated in physiological buffer before analysis. 20 ul of drug, 100 uM IBMX and 10 uM forskolin were added and incubated for 25 minutes at room temperature and then the reaction was stopped with the addition of 0.1 N HCl. Extracted cAMP level was determined via competitive EIA assay utilizing alkaline phosphatase. Additional experimental conditions were as described in Toll L., J Pharmacol Exp Ther. (1995) 273(2): 721-7.

[5] = tested on: gastrointestinal transit in rats; assay: Gastrointestinal transit (charcoal motility) in rats, alone or before morphine; assay type: in vivo, rat; details: for Mean Motility: ratio of length of charcoal transit/total intestine length, * p<0.05 vs vehicle
Description: F. et al J. Pharmacol. Exptl. Therap. 133: 400-408, 1961; D. E. Gmerek, et al J. Pharmacol. Exptl. Ther. 236: 8-13, 1986; and O. Yamamoto et al Neurogastroenterol. Motil. 10: 523-532, 1998.
A control group of rats received 2 mL/kg of a 0.9% saline solution (n=10). After 15 minutes, rats were subcutaneously injected with saline (1 mL/kg) or morphine (3 mg/kg). A 10% suspension of activated charcoal in 0.25% methylcellulose was administered orally at 10 mL/kg to the rats 20 minutes (±2 minutes) after the subcutaneous dose of morphine or saline. The rats were euthanized 25 minutes (±3 minutes) after receiving the charcoal and the intestines were removed and lightly stretched on moist paper along a meterstick. The small intestine from pyloric sphincter to caecum was measured and the distance traveled by the charcoal as a fraction of that length was evaluated for each rat.
Statistically significant effects were determined by ANOVA with Tukey HSD Multiple Comparison Test. Differences with p values <0.05 were considered statistically significant.
Values for charcoal motility were expressed as a percent effect and were calculated in the following manner: The individual distance traveled by the charcoal in centimeters was divided by the total length of the intestines in centimeters (pyloric sphincter to caecum) for each rat. Mean values were calculated for each group, and the percent effect was calculated using the following formula: […]

[6] = biological target: human recombinant kappa opioid receptors (Homo sapiens, UniProt P41145); assay: Radioligand binding assay, kappa opioid receptor
Description: as §4

[7] = 1 mg/kg sc + Morphine 3 mg/kg sc
[8] = 3 mg/kg sc + Morphine 3 mg/kg sc
[9] = 10 mg/kg sc + Morphine 3 mg/kg sc

T1 sequence (A0ACM8Q262 1-400): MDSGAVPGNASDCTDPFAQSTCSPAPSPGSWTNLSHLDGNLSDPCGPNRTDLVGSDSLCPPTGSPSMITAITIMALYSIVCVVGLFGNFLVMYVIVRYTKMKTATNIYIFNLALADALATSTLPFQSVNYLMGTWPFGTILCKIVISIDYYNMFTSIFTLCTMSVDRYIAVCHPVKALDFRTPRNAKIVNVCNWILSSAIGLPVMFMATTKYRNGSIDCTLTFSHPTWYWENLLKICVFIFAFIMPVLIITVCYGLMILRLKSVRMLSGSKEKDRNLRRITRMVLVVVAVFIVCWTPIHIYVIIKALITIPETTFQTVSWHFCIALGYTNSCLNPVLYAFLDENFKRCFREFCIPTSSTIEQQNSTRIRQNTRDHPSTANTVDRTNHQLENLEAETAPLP
T2 sequence (P35372 whole entry): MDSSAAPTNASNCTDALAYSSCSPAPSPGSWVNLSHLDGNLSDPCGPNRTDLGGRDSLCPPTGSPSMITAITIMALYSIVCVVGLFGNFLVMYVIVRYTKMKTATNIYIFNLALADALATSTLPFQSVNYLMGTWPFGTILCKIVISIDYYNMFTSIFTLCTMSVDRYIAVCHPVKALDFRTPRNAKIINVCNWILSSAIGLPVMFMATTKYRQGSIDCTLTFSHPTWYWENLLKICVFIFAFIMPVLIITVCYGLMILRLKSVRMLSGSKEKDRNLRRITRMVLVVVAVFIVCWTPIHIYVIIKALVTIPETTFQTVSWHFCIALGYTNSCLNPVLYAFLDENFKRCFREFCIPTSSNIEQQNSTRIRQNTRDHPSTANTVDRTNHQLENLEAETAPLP
Chain of human recombinant kappa opioid receptors (P41145 whole entry): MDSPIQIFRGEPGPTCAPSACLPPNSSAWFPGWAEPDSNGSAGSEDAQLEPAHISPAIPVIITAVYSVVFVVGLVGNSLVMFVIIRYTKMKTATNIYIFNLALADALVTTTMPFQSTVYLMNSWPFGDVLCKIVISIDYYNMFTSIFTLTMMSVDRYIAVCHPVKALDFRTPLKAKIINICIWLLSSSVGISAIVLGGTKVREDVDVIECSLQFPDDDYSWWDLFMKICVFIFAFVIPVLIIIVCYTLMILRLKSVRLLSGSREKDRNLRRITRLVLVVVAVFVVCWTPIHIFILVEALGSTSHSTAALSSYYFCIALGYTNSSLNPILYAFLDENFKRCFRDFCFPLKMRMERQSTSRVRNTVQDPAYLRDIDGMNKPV
Chain of human recombinant mu opioid receptors (P35372 whole entry): as the sequence (P35372 whole entry) above

C[N@@+]1(CC2CC2)CC[C@]23c4c5ccc(O)c4OC2C(=O)CCC3(O)C1C5 (stereo partly drawn) [S-MNTX, (S)-N-(cyclopropylmethyl)-noroxymorphone methyl salt]
Response to the compound (decrease in twitch contraction amplitude) ([1]; 1.0E−04 M, mean, n=2): 109% | Response to the compound (decrease in twitch contraction amplitude) ([1]; 1.0E−05 M, mean, n=2): 92% | Response to the compound (decrease in twitch contraction amplitude) ([1]; 1.0E−06 M, mean, n=2): 35% | Response to the compound (decrease in twitch contraction amplitude) ([1]; 1.0E−07 M, mean, n=2): 5% | Response to the compound (decrease in twitch contraction amplitude) ([1]; 1.0E−08 M, mean, n=2): 0% | Response to the compound (decrease in twitch contraction amplitude) ([1]; 3.0E−05 M, mean, n=2): 109% | Response to the compound (decrease in twitch contraction amplitude) ([1]; 3.0E−06 M, mean, n=2): 59% | Response to the compound (decrease in twitch contraction amplitude) ([1]; 3.0E−07 M, mean, n=2): 16% | Response to the compound (decrease in twitch contraction amplitude) ([1]; 3.0E−08 M, mean, n=2): 0% | Response to the compound +naloxone ([1]; compound 1.0E−04 M + naloxone 1.0E−07 M, percent of control response to DAMGO, mean, n=2): 17% | behaviour at the μ-opioid receptors in this tissue ([1]; field-stimulated guinea pig ileum): behaves as an agonist | EC50 ([1]; guinea pig ileum, linear regression of concentration-response curve): 2000 nM | Ki [2]: 198 nM | Response to DAMGO (1.0E−07 M) in the presence of the compound ([3]; compound 1.0E−04 M): 110% | Response to DAMGO (1.0E−07 M) in the presence of the compound ([3]; compound 1.0E−05 M): 105% | Response to DAMGO (1.0E−07 M) in the presence of the compound ([3]; compound 1.0E−06 M): 100% | Response to DAMGO (1.0E−07 M) in the presence of the compound ([3]; compound 1.0E−07 M): 100% | Response to DAMGO (1.0E−07 M) in the presence of the compound ([3]; compound 1.0E−08 M): 100% | Response to DAMGO (1.0E−07 M) in the presence of the compound ([3]; compound 3.0E−05 M): 109% | Response to DAMGO (1.0E−07 M) in the presence of the compound ([3]; compound 3.0E−06 M): 102% | Response to DAMGO (1.0E−07 M) in the presence of the compound ([3]; compound 3.0E−07 M): 100% | Response to DAMGO (1.0E−07 M) in the presence of the compound ([3]; compound 3.0E−08 M): 100% | Antagonist activity IC50 value ([3]; guinea pig ileum, against DAMGO 1.0E−07 M): No antagonist activity | antagonist effect in cAMP assay ([4]; cAMP antagonist assay): no antagonist effect | cAMP antagonist assay value (Table IX.2) ([4]; log{M} conc −4.0): −13 | cAMP antagonist assay value (Table IX.2) ([4]; log{M} conc −4.5): −13 | cAMP antagonist assay value (Table IX.2) ([4]; log{M} conc −5.0): −9 | cAMP antagonist assay value (Table IX.2) ([4]; log{M} conc −5.5): −8 | cAMP antagonist assay value (Table IX.2) ([4]; log{M} conc −6.0): −1 | cAMP antagonist assay value (Table IX.2) ([4]; log{M} conc −6.5): 9 | cAMP antagonist assay value (Table IX.2) ([4]; log{M} conc −7.0): 5 | cAMP antagonist assay value (Table IX.2) ([4]; log{M} conc −7.5): 6 | cAMP antagonist assay value (Table IX.2) ([4]; log{M} conc −8.0): 4 | cAMP antagonist assay value (Table IX.2) ([4]; log{M} conc −9.0): 0 | Percent Decrease [5, 7]: 54% | Mean Motility [5, 7]: 0.281* | Percent Decrease [5, 8]: 57% | Mean Motility [5, 8]: 0.258* | Percent Decrease [5, 9]: 80% | Mean Motility [5, 9]: 0.122* | Percent Decrease ([5]; 10 mg/kg sc + Saline): 21% | Mean Motility ([5]; 10 mg/kg sc + Saline): 0.476* | effect on GI transit in combination with / prior to morphine ([5]; rats, sc, 15 minutes before morphine 3 mg/kg): dramatic synergistic agonist effect in decreasing GI motility | effect on GI transit when administered alone ([5]; rats, sc, alone): decreased GI motility | Ki [6]: 1760 nM
